From a melting point compilation (Tetko et al.; mined from patent text by program, amines drawn as free bases though some values may be those of a salt) come the findings set out here.

The melting point is the temperature of the solid-liquid transition.

Some results are limits rather than exact numbers.

In the case of `CCC[C@H](C)C(=O)O[C@H]1C[C@H](O)C=C2C=C[C@H](C)[C@H](CC[C@@H]3C[C@@H](O)CC(=O)O3)[C@H]21`, the melting point was 134 °C.
With `CC(C)(C)OC(=O)NN(Cc1ccc(Cl)cc1)C(=O)OCC1c2ccccc2-c2ccccc21` the figure was 53 to 55 °C; with `CC(=O)NCC1CN(c2ccc(N3CC4CCCN(C(=O)OCc5ccccc5)C4C3)c(F)c2)C(=O)O1` (stereo not drawn), 74 to 76 °C.
With `O=C(O)C1CCc2c(oc3cc(Cl)ccc23)C1` (stereo not drawn) the figure was 189 to 191 °C; with `O=C(CO)Nc1ccccc1-c1nnc(C(c2ccc(Cl)cc2)c2c(Cl)cc(-n3ncc(=O)[nH]c3=O)cc2Cl)o1` (stereo not drawn), 235 °C; with `CC1(C)Cc2c(F)cccc2C(c2cnc3ccccc3c2)=N1`, 97 to 100 °C.
Turning to `NNc1ncccc1Br`, the melting point is 146 to 148 °C.
In turn, `CCOC(=O)CCC(C)C1CCC2C3C(O)C(CC)C4CC(O)CCC4(C)C3CCC12C` (stereo not drawn) came in with a melting point of 55 to 57 °C.
Take `CCCCCCCCCCCCc1ccc2c(c1)C(=O)c1ccccc1C2=O`: the melting point was 99 to 105 °C.
To `CC(C)c1cccc(C(C)C)c1NC(=O)CSCCCCCCCCCBr` belongs 85 to 86 °C.
With `CC(C)(C)OCCOCCn1cc(C(=O)NCc2ccc(Cl)cc2)c(=O)c2cc(CN3CCOCC3)ccc21` the figure was 130 to 132 °C; with `Cc1ccc(NCc2c(F)c(F)c(C(F)(F)F)c(F)c2F)cc1C(=O)O`, 84 °C.
With `COc1cc2c(cc1O)CN(C(C)=O)CC2` the figure was 142 to 144 °C; with `CCCCCCC(C)Oc1ccc(-c2ccc(O)cc2)cc1F` (stereo not drawn), 65.2 to 66.7 °C; with `COc1ccc(-c2nc(-c3[nH]cc(C)c3C)[nH]c2-c2ccc(OC)cc2)cc1`, 134 °C.
For the compound `O[C@@H]1CNC[C@H](c2ccc(C(F)(F)F)cc2)C1` (relative stereo), the melting point fell in the range of 189 to 192 °C.
In turn, `CCOC(=O)c1c(Cl)nc2cc(Cl)c(OC)cc2c1CCl` yielded a melting point above 250 °C.
With `NC1CCc2cc3c(cc2C1)OCC3` (stereo not drawn) the figure was 60 °C; with `CNC(=O)NC(=O)C(CC1CCCC1)c1ccc(C(F)(F)F)c(F)c1` (stereo not drawn), 187 to 189 °C; with `Cc1c(Br)c(=O)n(C2CCCC2)c2nc(Nc3ccc(N4CCOCC4)nc3)ncc12`, 254 to 256 °C.
To `Nc1ccc(-c2noc(-c3cnc4ccc(-c5ccc(C(F)(F)F)cc5)cn34)n2)cn1` belongs 258 °C; to `Fc1cc(C(Cl)(Cl)Cl)c(Cl)c(C(Cl)Cl)c1Cl`, 74 to 76 °C; to `Cc1cn(CC#CCN2CCCC2=O)cn1`, 134 to 137 °C.
On to `CC1CN(C)CC=C1C(=O)N1c2ccccc2NC(=O)c2ccccc21` (stereo not drawn), for which the melting point was 223 to 224 °C.
To `CCN(CC)CCNC(=O)c1cc(Cl)c(N)cc1OCCCN1C(=O)c2ccccc2C1=O` belongs 141 to 143 °C; to `CC12C=CC(=O)C=C1C1OC1C1C2CCC2(C)C(=O)CCC12` (stereo not drawn), 182 to 194 °C.
To `CC(/C=C/C(=O)OC(C)(C)C)=C\c1ccc([N+](=O)[O-])cc1` belongs 120 to 122 °C; to `O=C(NCCCCc1ccccc1)Oc1ccc2oc3ccccc3c2c1`, 113 to 114 °C.
With `C=CCN1CCc2c([nH]c3ccccc23)C(C(=O)OC)C1` (stereo not drawn) the figure was 105 to 108 °C.
`CCCCCCCCCCCCCCCCOc1cc(OC)c([N+](=O)[O-])cc1OC` registered a melting point of 71 °C.
`C[C@@H](C(O)=S)c1cc(C(C)(C)C)c(O)c(C(C)(C)C)c1` registered a melting point of 111 to 112 °C.
As to `O=C(NCc1cccnc1)C(F)(F)F`, the melting point lay in the range of 102 to 104 °C.
Regarding `N#CCN1C(=O)COc2cc(F)c(N3C(=O)C4=C(CCCC4)C3=O)cc21`, the melting point is 216 to 220 °C.
With `O=c1[nH]c(=O)n(C2CC(F)C(CCl)O2)cc1C=CBr` (stereo not drawn) the figure was 203 °C; with `COc1ccc(-c2cc3ncnc(Nc4ccc5[nH]ccc5c4)c3s2)cc1`, 150 to 180 °C.
To `CCS(=O)(=O)c1cn(C)cc(-c2cccc(C(F)(F)F)c2)c1=O` belongs 196 to 198 °C.
To `CN1C(=O)c2cnc(-c3ccccc3)nc2N(C(=O)CN2CCN(Cc3ccccc3)CC2)c2ccccc21` belongs 194 °C; to `CCN(CC)C(=O)Cc1nn(-c2ccccc2)c(=O)c2c1c1ccc(Cl)cc1n2C`, 167 to 168 °C.
Turning to `CCOC(=O)c1nc2ccc([N+](=O)[O-])cc2c(O)c1C(=O)OCC`, the melting point is 264 °C.
With `CCOCCCNc1nc(C)[nH]c2cc(-c3ccccc3)nc1-2` the figure was 208 to 210 °C; with `Cc1ccc(S(=O)(=O)N2CC(CO)(CO)C2)cc1`, 148 to 150 °C.
`CC(C)C(N)CN1CCC(Nc2nc3ccccc3n2Cc2ccc3ccccc3n2)CC1` (stereo not drawn) registered a melting point of 135 °C.
`Fc1ccc(COc2ncc(F)c(N=CN3CCCC3)n2)cc1` gave a melting point of 102 to 103 °C.
With `NC(=O)N(O)CCNC(=O)c1ccccc1Oc1ccccc1` the figure was 182 to 185 °C; with `Cc1c(Cl)cc(C(=O)O)c(Cl)c1N`, 218 to 221 °C; with `CC1(C)Cc2cc(C(=O)O)sc2C1`, 170 to 172 °C.
For `C=CCc1c(OCC=Cc2ccccc2)ccc2c1CCC(=O)N2CC=Cc1ccccc1`, the melting point lay in the range of 66 to 68 °C.
To `COc1ccc2c(c1)OCC(c1ccc(C(F)(F)F)cc1)C2c1ccc(OCCN2CCCC2)cc1` (stereo not drawn) belongs 119 to 120 °C; to `COc1ccc(CS(=O)(=O)c2cc3ccc(O)cc3oc2=O)cc1`, 231 to 232 °C.
To `O=C(O)c1ccc(OCc2ccccc2)c(C23CC4CC(CC(C4)C2)C3)c1` belongs 251 to 253 °C; to `COC(=O)Cc1c(-c2ccccc2)nn(-c2ccccc2)c1-c1ccccc1`, 80.5 to 81.5 °C.
With `O=C(O)Cc1ccc2c(c1)Cc1ccccc1CC2=O` the figure was 178 to 181 °C.
`NC(=O)Oc1ccccc1-c1nc2ccc(OCc3c(F)cccc3F)cc2s1` gave a melting point of 216 °C.
In the case of `CCCN(CCC)CC1CCCCN1CCNC(=O)N1c2ccccc2C(=O)Nc2cccc(Cl)c21` (stereo not drawn), the melting point was in the range of 71 to 78 °C.
To `CCCCCCCCNC(=O)[C@@H]1C[C@H]1c1ccc(NC(=O)/C=C\C(=O)O)cc1` (relative stereo) belongs 178 to 180 °C; to `CC(C)(C)C(=O)Nc1nc(O)c2cc(CCc3ccc(C(=O)O)cc3)cnc2n1`, above 300 °C; to `Cc1cccc(-c2c[nH]nc2-c2ccnc(-c3ccc(OCCN4CCCC4)cc3)c2)n1`, 96 °C.
With `OC(CCCl)COc1ccc(Cl)cc1` (stereo not drawn) the figure was 62 to 64 °C; with `COc1cccc(Sc2ccccc2CC(=O)O)c1`, 63 to 65 °C.
With `COC(=O)c1ccc(CC(C)NCC(O)c2ccc(O)c(CO)c2)cc1O` (stereo not drawn) the figure was 81 to 83 °C; with `Cc1cc2c(cc1-n1c(C)ccc1C)OC(=O)C2C` (stereo not drawn), 94 to 95 °C.
For `COC(=O)CCCSC(=S)NCc1ccc(Cl)cc1`, the melting point was 60 to 62 °C.
In the case of `O=C1C2=C(NC3(C=N2)SCCS3)c2ccccc21`, the melting point was 284 to 290 °C.
To `COc1ccc(S(=O)(=O)Nc2nc(-c3cccc4ccccc34)cs2)cc1` belongs 98 to 100 °C; to `Cc1ccc(S(=O)(=O)Nc2ccc(Cl)cc2[N+](=O)[O-])cc1`, 110 to 111 °C.
To `CC(C)(C)c1cc(Sc2n[nH]c(=S)o2)cc(C(C)(C)C)c1O` belongs 129 to 131 °C; to `COC(=O)COc1ccc2cc(-c3cnc(-c4cn(Cc5ccccc5)c5ccccc45)o3)ccc2c1`, 204 to 207 °C.
`CN1C(=O)C(c2cc[nH]c2)(c2cccc(O)c2)N=C1N` (stereo not drawn) had a melting point of 142 to 145 °C.
For `CCCCc1nc2c(c(=O)[nH]1)CN(C(=O)OCc1ccccc1)CC2`, the melting point lay within 117 to 122 °C.
With `c1cc2cc3cnccc3cc2cn1` the figure was 174 °C.
Take `CCOC(=O)C1=C(C=O)NC(C=O)=C(C(=O)OCC)C1c1ccccc1Cl`: the melting point was in the range of 85 to 86 °C.
To `Cc1[nH]c2ccc(CCN(C)C3CCOCC3)cc2c1C(=O)OCc1ccccc1` belongs 109 to 111 °C; to `O=C(CCl)CCCc1ccc(CCCC(=O)CCl)cc1`, 70 to 71 °C; to `COc1ccc(-c2nc(COCCc3cccc(NS(=O)(=O)C(F)(F)F)c3)cs2)cc1`, 112 to 113 °C.
To `O=C1c2ccccc2N(Cc2cccs2)C2=NCCN12` belongs 124 to 127 °C; to `CCC12CCC3c4ccc(OC)cc4C(C)CC3C1CCC2=O` (stereo not drawn), 115 to 123 °C; to `CCCCCCCCCCCCCCCCCCC1CC(=O)N(c2ccc([N+](=O)[O-])cc2O)C1=O` (stereo not drawn), 115 to 120 °C.
As for `CCCCNS(=O)(=O)c1ccc(OC)c(NC(C)=O)c1`, the melting point was 115 to 117 °C.
The compound `CCOC(=O)c1cc(Cl)n2c(C)nnc2n1` had a melting point of 108 to 110 °C.
With `O=C1NC(C(=O)N2CCN3C(=O)OC(c4ccccc4)(c4ccccc4)C3C2)c2ccccc21` (stereo not drawn) the figure was 227 to 228 °C; with `CCCC(CCC)n1c(CC)nc2[nH]c(=O)n(C)c(=O)c21`, 152 to 153 °C; with `O=C(N[C@H]1CC[C@H](CCN2CCN(c3nccc4c3CCO4)CC2)CC1)c1ccc(C(F)(F)F)cc1`, 227 °C.
Compound `O=C(NCC(=O)N(c1ccccc1)c1ccccc1)Nc1cccc(O)c1` yielded a melting point of 244 °C.
The compound `NS(=O)(=O)c1ccc(NC(=O)c2ccccc2SSc2ccccc2C(=O)O)cc1` showed a melting point of 276 to 278 °C.
Compound `CNS(=O)(=O)c1cc(C(=O)CCC(=O)OC)ccc1Cl` yielded a melting point of 112 to 114 °C.
To `COc1ccc2c(c1)S(=O)(=O)C(C(=O)Nc1ccc(Cl)c(Cl)c1)C(=O)N2C` (stereo not drawn) belongs 230 to 233 °C.
With `FC(F)(F)c1cccc(-c2nc(-c3ccccn3)no2)c1` the figure was 116 to 118 °C; with `NC(=O)c1nc(-c2cccc(O)c2)nc2c1[nH]c(=O)n2-c1ccccc1C1CCCCC1`, above 270 °C.
